Values of other authors as cited in US8398606B2, “Folded perineal pad” (QuantrRx Biomedical Corporation, priority 2007, dated 2013).

Design: dose or concentration left out as unconfirmed
Conditions: ILP system releasing of estradiol as its 3-acetate ester, in HRT; maintained level

circulating plasma concentration of the drug: 300 pmol/L
SMILES: C[C@]12CC[C@@H]3c4ccc(O)cc4CC[C@H]3[C@@H]1CC[C@@H]2O [estradiol]
